Columns and labels:
Assay type in all cases: biochemical
MmCLK1 = molecular target: T1, MmCLK1 (Mus musculus, UniProt P22518); test: ADP-Glo kinase inhibition assay, CLK1; settings: for IC50: 10 μM ATP, duplicate, read-out: CLK1 IC50; for remaining activity at 1 µM: read-out: CLK1 % residual activity at 1 μM; for remaining activity at 10 µM: read-out: CLK1 % residual activity at 10 μM
T1 construct: host or cells: bacteria
Description: (§1) Kinase enzymatic activities were assayed in 384 well plates using the ADP-GloTM assay kit (Promega, Madison, WI, USA) according to the manufacturer’s guidance. Briefly, the reactions were carried out in a final volume of 6 μL for 30 min at 30 °C in an appropriate kinase buffer (10 mM MgCl2, 1 mM EGTA, 1 mM DTT, 25 mM Tris-HCl pH 7.5, 50 μg/mL heparin), with either protein or peptide as substrate in the presence of 10 μM ATP (40 mM Tris pH 7.5, 20 mM MgCl2 and 0.1 mg/mL of BSA). Afterward, 6 μL of ADP-GloTM Kinase Reagent was added to stop the kinase reaction. After an incubation time of 50 min at room temperature (RT), 12 μL of Kinase Detection Reagent was added for 1 h at RT. The transmitted signal was measured using the Envision (Perkin Elmer, Waltham, MA, USA) microplate luminometer and expressed in relative light unit (RLU). In order to determine the half maximal inhibitory concentration (IC50), the assays were performed in duplicate in the absence or presence of increasing doses of the tested compounds. GraphPad Prism6 software (GraphPad Software, San Diego, CA, USA) was used to fit dose–response curves and to determine the IC50 values. Kinase activities are expressed in the percentage of maximal activity, i.e., measured in the absence of an inhibitor. Peptide substrates were obtained from Proteogenix (Schiltigheim, France).
(§2) The following protein kinases were analyzed in this study: CDK5/p25 (human, recombinant, expressed in bacteria) was assayed with 0.8 μg/μL of histone H1 as substrate; CDK9/CyclinT (human, recombinant, expressed by baculovirus in Sf9 insect cells) were assayed with 0.27 μg/μL of the following peptide: […], as substrate; CK1ε (human, recombinant, expressed by baculovirus in Sf9 insect cells) was assayed with 0.022 μg/μL of the following peptide: […]pAYSITA (“Sp” stands for phosphorylated serine) as CK1-specific substrate; GSK3β (human, recombinant, expressed by baculovirus in Sf9 insect cells) were assayed with 0.010 μg/μL of GS-1 peptide, a GSK-3-selective substrate ([…]pEDEEE); Haspin-kd (human, kinase domain, amino acids 470–798, recombinant, expressed in bacteria) was assayed with 0.007 μg/μL of histone H3 (1–21) peptide ([…]) as substrate; Pim-1 (human proto-oncogene, recombinant, expressed in bacteria) was assayed with 0.8 μg/μL of histone H1 as substrate; MmCLK1 (from Mus musculus, recombinant, expressed in bacteria) was assayed with 0.027 μg/μL of the following peptide: […] as substrate; RnDYRK1A-kd (Rattus norvegicus, amino acids 1–499 including the kinase domain, recombinant, expressed in bacteria, DNA vector kindly provided by Dr. W. Becker, Aachen, Germany) was assayed with 0.033 μg/μL of the following peptide: […] as substrate.

CDK9/CyclinT = molecular target: T2, CDK9/CyclinT (Homo sapiens, UniProt P50750); test: ADP-Glo kinase inhibition assay, CDK9/CyclinT; settings: for remaining activity at 1 µM: read-out: CDK9 % residual activity at 1 μM; for remaining activity at 10 µM: read-out: CDK9 % residual activity at 10 μM; for IC50: 10 μM ATP, duplicate
T2 construct: host or cells: Sf9 insect cells (baculovirus)
Description: as §1, §2

CDK5/p25 = molecular target: T3, CDK5/p25 (Homo sapiens, UniProt Q00535); test: ADP-Glo kinase inhibition assay, CDK5/p25; settings: for remaining activity at 1 µM: read-out: CDK5 % residual activity at 1 μM; for remaining activity at 10 µM: read-out: CDK5 % residual activity at 10 μM
T3 construct: host or cells: bacteria
Description: as §1, §2

RnDYRK1A-kd = molecular target: T4, RnDYRK1A-kd (Rattus norvegicus, UniProt Q63470); test: ADP-Glo kinase inhibition assay, DYRK1A; settings: for remaining activity at 1 µM: read-out: DYRK1A % residual activity at 1 μM; for remaining activity at 10 µM: read-out: DYRK1A % residual activity at 10 μM
T4 construct: RnDYRK1A-kd (Rattus norvegicus, amino acids 1–499 including the kinase domain, recombinant, expressed in bacteria); made in house; host or cells: bacteria
Description: as §1, §2

GSK3β = molecular target: T5, GSK3β (Homo sapiens, UniProt P49841); test: ADP-Glo kinase inhibition assay, GSK3β; settings: for remaining activity at 1 µM: read-out: GSK3 % residual activity at 1 μM; for remaining activity at 10 µM: read-out: GSK3 % residual activity at 10 μM; for IC50: 10 μM ATP, duplicate, read-out: GSK3 IC50
T5 construct: host or cells: Sf9 insect cells (baculovirus)
Description: as §1, §2

[1] = molecular target: T6, Haspin-kd (human, kinase domain, amino acids 470–798) (Homo sapiens, UniProt Q8TF76); test: ADP-Glo kinase inhibition assay, Haspin; settings: for IC50: 10 μM ATP, duplicate; for remaining activity at 1 µM: read-out: Haspin % residual activity at 1 μM; for remaining activity at 10 µM: read-out: Haspin % residual activity at 10 μM
T6 construct: Haspin-kd (human, kinase domain, amino acids 470–798, recombinant, expressed in bacteria); host or cells: bacteria
T6 sequence (Q8TF76 470-798): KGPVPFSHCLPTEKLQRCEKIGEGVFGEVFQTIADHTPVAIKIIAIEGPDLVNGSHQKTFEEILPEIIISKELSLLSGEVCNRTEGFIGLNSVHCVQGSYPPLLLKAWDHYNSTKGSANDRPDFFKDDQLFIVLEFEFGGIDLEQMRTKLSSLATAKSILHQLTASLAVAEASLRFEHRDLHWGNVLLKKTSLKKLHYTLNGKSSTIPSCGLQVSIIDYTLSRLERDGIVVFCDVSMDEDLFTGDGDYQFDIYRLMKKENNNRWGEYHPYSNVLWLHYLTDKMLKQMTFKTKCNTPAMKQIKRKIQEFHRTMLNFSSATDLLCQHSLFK
Description: as §1

CK1ε = molecular target: T7, CK1ε (Homo sapiens, UniProt P49674); test: ADP-Glo kinase inhibition assay, CK1ε; settings: 10 μM ATP, duplicate; for remaining activity at 1 µM: 1 μM compound, read-out: CK1 % residual activity at 1 μM; for remaining activity at 10 µM: 10 μM compound, read-out: CK1 % residual activity at 10 μM
T7 construct: host or cells: Sf9 insect cells (baculovirus)
Description: as §1, §2

Pim-1 = molecular target: T8, Pim-1 (Homo sapiens, UniProt P11309); test: ADP-Glo kinase inhibition assay, Pim-1; settings: 10 μM ATP, duplicate; for remaining activity at 1 µM: 1 μM compound, read-out: PIM1 % residual activity at 1 μM; for remaining activity at 10 µM: 10 μM compound, read-out: PIM1 % residual activity at 10 μM
T8 construct: host or cells: bacteria
Description: as §1, §2

T2 sequence (O60563 whole entry): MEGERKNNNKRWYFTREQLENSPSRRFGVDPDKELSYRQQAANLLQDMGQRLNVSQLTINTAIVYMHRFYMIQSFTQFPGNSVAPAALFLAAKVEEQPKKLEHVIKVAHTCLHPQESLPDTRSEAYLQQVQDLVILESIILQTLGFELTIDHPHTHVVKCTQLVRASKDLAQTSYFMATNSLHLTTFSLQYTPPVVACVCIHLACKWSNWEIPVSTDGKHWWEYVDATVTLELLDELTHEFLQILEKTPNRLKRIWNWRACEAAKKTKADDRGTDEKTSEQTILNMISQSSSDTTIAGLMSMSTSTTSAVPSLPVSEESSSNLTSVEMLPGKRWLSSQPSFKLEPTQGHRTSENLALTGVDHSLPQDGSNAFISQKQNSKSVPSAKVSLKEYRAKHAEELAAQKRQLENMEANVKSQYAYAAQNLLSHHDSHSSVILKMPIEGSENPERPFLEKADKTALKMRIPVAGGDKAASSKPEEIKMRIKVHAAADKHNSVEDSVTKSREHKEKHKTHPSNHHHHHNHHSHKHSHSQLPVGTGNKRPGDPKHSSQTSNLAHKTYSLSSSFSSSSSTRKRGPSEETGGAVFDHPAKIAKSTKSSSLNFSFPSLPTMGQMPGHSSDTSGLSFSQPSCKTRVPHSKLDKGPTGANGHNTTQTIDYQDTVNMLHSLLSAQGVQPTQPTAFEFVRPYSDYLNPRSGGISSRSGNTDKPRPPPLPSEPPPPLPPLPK
T2 sequence (P50750 whole entry): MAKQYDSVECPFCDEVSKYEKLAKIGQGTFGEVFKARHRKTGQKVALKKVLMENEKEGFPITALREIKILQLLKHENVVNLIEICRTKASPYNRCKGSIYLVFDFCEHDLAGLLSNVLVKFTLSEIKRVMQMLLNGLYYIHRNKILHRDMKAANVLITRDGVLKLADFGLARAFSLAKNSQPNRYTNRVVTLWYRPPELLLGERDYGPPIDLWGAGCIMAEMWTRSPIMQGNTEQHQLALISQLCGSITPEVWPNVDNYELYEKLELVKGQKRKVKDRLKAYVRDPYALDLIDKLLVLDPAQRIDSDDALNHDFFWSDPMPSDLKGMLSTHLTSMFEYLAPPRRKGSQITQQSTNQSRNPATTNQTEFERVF
T7 sequence (P49674 whole entry): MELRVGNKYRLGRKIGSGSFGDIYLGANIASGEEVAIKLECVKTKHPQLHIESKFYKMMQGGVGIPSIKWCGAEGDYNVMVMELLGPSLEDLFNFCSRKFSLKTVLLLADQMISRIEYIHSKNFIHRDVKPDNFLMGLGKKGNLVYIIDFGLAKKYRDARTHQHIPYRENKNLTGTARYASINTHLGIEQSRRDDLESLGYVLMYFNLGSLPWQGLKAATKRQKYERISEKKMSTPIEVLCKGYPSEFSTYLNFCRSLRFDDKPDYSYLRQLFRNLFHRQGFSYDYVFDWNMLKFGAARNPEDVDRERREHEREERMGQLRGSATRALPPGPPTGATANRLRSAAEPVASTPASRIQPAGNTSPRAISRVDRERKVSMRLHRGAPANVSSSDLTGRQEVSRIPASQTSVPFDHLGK
T1 sequence (P22518 whole entry): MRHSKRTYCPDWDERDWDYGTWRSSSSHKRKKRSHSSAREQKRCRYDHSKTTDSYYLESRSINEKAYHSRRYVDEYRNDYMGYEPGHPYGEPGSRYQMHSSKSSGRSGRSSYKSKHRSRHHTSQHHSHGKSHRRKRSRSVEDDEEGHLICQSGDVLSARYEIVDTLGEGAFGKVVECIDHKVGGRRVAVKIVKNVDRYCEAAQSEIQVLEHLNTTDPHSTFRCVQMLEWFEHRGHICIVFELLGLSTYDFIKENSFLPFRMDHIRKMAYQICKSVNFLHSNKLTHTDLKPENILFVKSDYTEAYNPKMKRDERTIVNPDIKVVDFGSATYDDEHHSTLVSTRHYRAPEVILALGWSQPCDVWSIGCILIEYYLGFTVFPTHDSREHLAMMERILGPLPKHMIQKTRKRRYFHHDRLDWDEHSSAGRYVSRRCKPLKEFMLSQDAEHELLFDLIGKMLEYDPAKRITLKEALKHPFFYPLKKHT
T3 sequence (Q00535 whole entry): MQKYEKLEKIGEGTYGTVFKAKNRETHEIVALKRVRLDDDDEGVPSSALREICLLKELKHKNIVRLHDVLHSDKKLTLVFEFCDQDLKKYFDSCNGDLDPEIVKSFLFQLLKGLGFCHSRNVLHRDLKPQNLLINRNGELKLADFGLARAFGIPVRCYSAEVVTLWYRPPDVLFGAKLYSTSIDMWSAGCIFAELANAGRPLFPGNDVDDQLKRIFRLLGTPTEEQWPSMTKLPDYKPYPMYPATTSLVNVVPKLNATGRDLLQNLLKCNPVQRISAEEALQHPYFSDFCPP
T3 sequence (Q15078 99-307, further chain): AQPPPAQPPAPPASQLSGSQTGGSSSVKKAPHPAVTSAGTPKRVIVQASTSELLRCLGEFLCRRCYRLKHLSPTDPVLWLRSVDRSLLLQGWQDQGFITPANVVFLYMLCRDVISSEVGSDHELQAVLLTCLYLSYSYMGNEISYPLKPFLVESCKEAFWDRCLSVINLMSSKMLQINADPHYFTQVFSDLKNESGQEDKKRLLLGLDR
T5 sequence (P49841 whole entry): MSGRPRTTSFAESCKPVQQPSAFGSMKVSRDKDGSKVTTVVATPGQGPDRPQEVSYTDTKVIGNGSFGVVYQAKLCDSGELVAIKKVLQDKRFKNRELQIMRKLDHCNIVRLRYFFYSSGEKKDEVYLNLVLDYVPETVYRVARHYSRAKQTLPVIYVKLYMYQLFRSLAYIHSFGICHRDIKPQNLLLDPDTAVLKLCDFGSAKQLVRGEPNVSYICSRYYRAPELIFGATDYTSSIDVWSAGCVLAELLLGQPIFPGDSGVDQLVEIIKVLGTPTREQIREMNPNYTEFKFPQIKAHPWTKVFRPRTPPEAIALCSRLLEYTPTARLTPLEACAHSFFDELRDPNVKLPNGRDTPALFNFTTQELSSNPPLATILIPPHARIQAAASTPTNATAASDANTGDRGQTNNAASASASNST
T8 sequence (P11309 whole entry): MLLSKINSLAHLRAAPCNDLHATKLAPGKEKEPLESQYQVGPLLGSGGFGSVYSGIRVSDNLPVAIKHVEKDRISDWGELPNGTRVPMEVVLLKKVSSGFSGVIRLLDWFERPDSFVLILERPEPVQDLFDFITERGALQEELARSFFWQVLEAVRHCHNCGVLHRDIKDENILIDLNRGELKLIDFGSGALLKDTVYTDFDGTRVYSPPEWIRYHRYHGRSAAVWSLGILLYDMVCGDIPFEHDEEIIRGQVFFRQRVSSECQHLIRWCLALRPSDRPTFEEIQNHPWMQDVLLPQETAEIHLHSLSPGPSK

Row | SMILES | IC50 (MmCLK1) [nM] | remaining activity at 1 µM (MmCLK1) [%] | remaining activity at 10 µM (MmCLK1) [%] | remaining activity at 1 µM (CDK9/CyclinT) [%] | remaining activity at 10 µM (CDK9/CyclinT) [%] | remaining activity at 1 µM (CDK5/p25) [%] | remaining activity at 10 µM (CDK5/p25) [%] | remaining activity at 1 µM (RnDYRK1A-kd) [%] | remaining activity at 10 µM (RnDYRK1A-kd) [%] | remaining activity at 1 µM (GSK3β) [%] | remaining activity at 10 µM (GSK3β) [%] | IC50 [1] [nM] | remaining activity at 1 µM [1] [%] | remaining activity at 10 µM [1] [%] | remaining activity at 1 µM (CK1ε) [%] | remaining activity at 10 µM (CK1ε) [%] | remaining activity at 1 µM (Pim-1) [%] | remaining activity at 10 µM (Pim-1) [%] | IC50 (CDK9/CyclinT) [nM] | IC50 (GSK3β) [nM] | also measured
1 | CCn1ncc2cc3cnccc3c(N)c21 [Compound 2c, 1-Ethyl-1H-pyrazolo[3,4-g]isoquinolin-9-amine] | 564 | 34 | 8 | 80 | 50 | 65 | 28 | 23 | 6 | 82 | 40 | 62 | 17 | 3 | 84 | 48 | 91 | 60 |  |  | IC50 (RnDYRK1A-kd; 10 μM ATP, duplicate, read-out: DYRK1A IC50): 250 nM; Selectivity Index (SI) Haspin vs. DYRK1A ([1]; Haspin vs. DYRK1A, which was more inhibited than CLK1): 4.0
2 | CCn1ncc2c(C)c3cnccc3c([N+](=O)[O-])c21 [Compound 3a, 1-Ethyl-4-methyl-9-nitro-1H-pyrazolo[3,4-g]isoquinoline] | 101 | 13 | 0 | 43 | 14 | 64 | 35 | 73 | 13 | 39 | 9 | 167 | 20 | 8 | 89 | 45 | 100 | 97 | 789 | 1080 | 
3 | CCc1c2cnccc2c([N+](=O)[O-])c2c1cnn2CC [Compound 3b, 1,4-Diethyl-9-nitro-1H-pyrazolo[3,4-g]isoquinoline] |  | 19 | 0 | 25 | 0 | 33 | 16 | 100 | 9 | 28 | 3 |  | 63 | 10 | 82 | 25 | 100 | 89 |  |  | inhibition at 1 µM ([1]; read-out: Haspin inhibition at 1 μM, 1 μM compound, % inhibition): ≤ 50%
4 | CCCc1c2cnccc2c([N+](=O)[O-])c2c1cnn2CC [Compound 3c, 1-Ethyl-9-nitro-4-propyl-1H-pyrazolo[3,4-g]isoquinoline] | 363 | 23 | 4 | 18 | 4 | 54 | 10 | 95 | 41 | 12 | 5 | 497 | 25 | 17 | 81 | 35 | 86 | 88 | 322 | 218 | 

Reference: article PMC9457941, “Synthesis and Kinase Inhibitory Potencies of Pyrazolo[3,4-g]isoquinolines” (Molecules, 2022)
